One experiment deals with T1, hL-CPT1 (Homo sapiens, UniProt P50416).
T1 construct: made in house; host or cells: Pichia pastoris strain X-33 (pGAPZB/pGAPZA), crude cell-free extract
T1 sequence (P50416 1-773): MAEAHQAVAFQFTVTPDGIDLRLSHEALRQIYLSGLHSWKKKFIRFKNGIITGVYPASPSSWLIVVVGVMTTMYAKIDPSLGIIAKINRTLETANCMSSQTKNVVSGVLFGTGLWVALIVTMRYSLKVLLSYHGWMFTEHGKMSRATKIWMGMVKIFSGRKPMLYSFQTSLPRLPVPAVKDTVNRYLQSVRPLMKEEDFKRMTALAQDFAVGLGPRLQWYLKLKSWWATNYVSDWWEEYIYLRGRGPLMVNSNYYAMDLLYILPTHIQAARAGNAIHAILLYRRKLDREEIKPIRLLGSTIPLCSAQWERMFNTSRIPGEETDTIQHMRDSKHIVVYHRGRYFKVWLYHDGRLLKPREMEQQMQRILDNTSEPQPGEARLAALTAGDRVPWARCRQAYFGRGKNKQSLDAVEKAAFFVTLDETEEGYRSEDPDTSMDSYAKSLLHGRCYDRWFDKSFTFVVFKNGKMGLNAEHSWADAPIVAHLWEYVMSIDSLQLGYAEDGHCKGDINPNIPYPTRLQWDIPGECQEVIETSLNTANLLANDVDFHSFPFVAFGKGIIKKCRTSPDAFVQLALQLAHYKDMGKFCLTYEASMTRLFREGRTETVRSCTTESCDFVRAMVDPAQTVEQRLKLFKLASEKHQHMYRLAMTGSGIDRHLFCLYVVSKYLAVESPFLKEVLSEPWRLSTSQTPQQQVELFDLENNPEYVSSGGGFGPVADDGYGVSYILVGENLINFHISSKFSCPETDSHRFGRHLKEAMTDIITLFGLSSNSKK
The experiment is described as follows: hL-CPT1 inhibition (spectrophotometric DTNB CPT activity assay). The experiment is classed as biochemical. Conditions: human liver CPT1 expressed in P. pastoris, cell extract; carnitine 500 μM, palmitoyl-CoA 80 μM, DTNB 300 μM. On the procedure:
(§1) The following tests were carried out in order to determine the activity of the compounds of the present invention. Background information on the performed assays can be found in: Jackson et al., 1999, Biochem. J. 341, 483-489 and Jackson et al., 2000, J. Biol. Chem. 275, 19560-19566.
(§2) Human and rat CPT2- and liver CPT1 cDNAs, and human muscle CPT1 cDNA were subcloned in pGAPZB or pGAPZA, respectively. These plasmids were used to transform P. pastoris strain X-33 via electroporation after the preparation of electrocompetent cells. High copy number clones were selected where necessary using 0.5 or 1 mg/ml Zeocin. Cultures for activity measurements were induced for 16 h in YPD medium (1% yeast extract, 2% peptone, 2% glucose). Crude cell extracts were prepared by disrupting the cells with glass beads or French Press, depending on fermenter sizes. After centrifugation, the cell-free extracts were resuspended in cell breaking buffer (50 mM Tris, pH7.4, 100 mM KCl, 1 mM EDTA) in the presence of a protease inhibitor cocktail, before aliquoting and freezing at −20° C.
(§3) CPT activity was measured using a spectrophotometric assay using 5,5′-dithio-bis-(2-nitrobenzoic acid) (DTNB) also called Ellman's reagent. The HS-CoA released on the formation of acylcarnitine from carnitine (500 μM) and palmitoyl-CoA (80 μM) reduced DTNB (300 μM) forming 5-mercapto-2-nitrobenzoic acid which absorbed at 410 nm with a molar extinction coefficient of 13600 M^−1 cm^−1. The assay buffer contained 120 mM KCl, 25 mM Tris, pH 7.4, 1 mM EDTA. This assay was used for the identification of CPT inhibitors, particularly/preferentially CPT2-selective inhibitors, versus the liver and muscle CPT1 isoforms.

In the next experiment the target is T2, hCPT2 (Homo sapiens, UniProt P23786).
T2 construct: made in house; host or cells: Pichia pastoris strain X-33 (pGAPZB/pGAPZA), crude cell-free extract
T2 sequence (P23786 26-658): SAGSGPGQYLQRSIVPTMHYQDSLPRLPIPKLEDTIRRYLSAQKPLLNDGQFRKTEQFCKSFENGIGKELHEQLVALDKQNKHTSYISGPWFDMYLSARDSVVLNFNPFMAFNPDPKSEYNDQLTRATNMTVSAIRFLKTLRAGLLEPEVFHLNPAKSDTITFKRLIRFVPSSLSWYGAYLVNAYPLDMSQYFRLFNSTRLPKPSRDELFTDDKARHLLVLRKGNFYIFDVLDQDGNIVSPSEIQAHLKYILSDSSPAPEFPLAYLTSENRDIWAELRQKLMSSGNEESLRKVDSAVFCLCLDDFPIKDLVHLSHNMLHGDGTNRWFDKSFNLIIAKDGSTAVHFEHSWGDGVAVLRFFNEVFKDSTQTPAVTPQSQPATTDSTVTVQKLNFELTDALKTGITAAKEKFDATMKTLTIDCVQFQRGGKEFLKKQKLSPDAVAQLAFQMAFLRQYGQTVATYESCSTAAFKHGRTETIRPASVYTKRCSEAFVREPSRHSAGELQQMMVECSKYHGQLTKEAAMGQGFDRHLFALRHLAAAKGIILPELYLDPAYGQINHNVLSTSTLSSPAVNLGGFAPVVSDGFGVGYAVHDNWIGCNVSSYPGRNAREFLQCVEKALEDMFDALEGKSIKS
The experiment is described as follows: hCPT2 inhibition (spectrophotometric DTNB CPT activity assay). The class given is biochemical. The conditions noted are these: human CPT2 expressed in P. pastoris, cell extract; carnitine 500 μM, palmitoyl-CoA 80 μM, DTNB 300 μM. On the procedure: as §1, §2, §3

Bounds are passed on as bounds.

We go through 18 molecules from patent US8349893B2, “4-trimethylammonio-butyrates as CPT2 inhibitors” (Hoffmann-La Roche Inc., priority 2008, dated 2013).

With `C[N+](C)(C)C[C@@H](CC(=O)[O-])NC(=O)CCCCCCCOCc1ccc(F)c(F)c1` [Example 1, (R)-3-[8-(3,4-Difluoro-benzyloxy)-octanoylamino]-4-trimethylammonio-butyrate], the IC50 was found to be 2190 nM against hL-CPT1 and 73.2 nM at hCPT2.

In the case of `C[N+](C)(C)C[C@@H](CC(=O)[O-])NC(=O)CCCCCCCOCc1cc(F)ccc1F` [Example 2, (R)-3-[8-(2,5-Difluoro-benzyloxy)-octanoylamino]-4-trimethylammonio-butyrate], the IC50 against hL-CPT1 came to 5630 nM; against hCPT2, 125 nM.

Take `C[N+](C)(C)C[C@@H](CC(=O)[O-])NC(=O)CCCCCCCOCc1ccc(F)cc1F` [Example 3, (R)-3-[8-(2,4-Difluoro-benzyloxy)-octanoylamino]-4-trimethylammonio-butyrate]: the IC50 against hL-CPT1 came to 1120 nM; against hCPT2, 298 nM.

Turning to `C[N+](C)(C)C[C@@H](CC(=O)[O-])NC(=O)CCCCCCCOCc1ccc(C(F)(F)F)cc1` [Example 6, (R)-3-[8-(4-Trifluoromethyl-benzyloxy)-octanoylamino]-4-trimethylammonio-butyrate], the IC50 against hL-CPT1 was 4340 nM; at hCPT2, 32.1 nM.

Consider `C[N+](C)(C)C[C@@H](CC(=O)[O-])NC(=O)CCCCCCCOCc1ccc(C(F)(F)F)c(F)c1` [Example 7, (R)-3-[8-(3-Fluoro-4-trifluoromethyl-benzyloxy)-octanoylamino]-4-trimethylammonio-butyrate], for which the results for the IC50 against hL-CPT1 and on hCPT2 were 2250 nM and 32.3 nM, respectively.

Consider `COc1ccc(COCCCCCCCC(=O)N[C@H](CC(=O)[O-])C[N+](C)(C)C)cc1` [Example 8, (R)-3-[8-(4-Methoxy-benzyloxy)-octanoylamino]-4-trimethylammonio-butyrate], for which the IC50 is 7190 nM on hL-CPT1 and 53.7 nM against hCPT2.

Turning to `C[N+](C)(C)C[C@@H](CC(=O)[O-])NC(=O)CCCCCCCOCc1ccc(-c2ccccc2)cc1` [Example 9, (R)-3-[8-(Biphenyl-4-ylmethoxy)-octanoylamino]-4-trimethylammonio-butyrate], the IC50 on hL-CPT1 was 1090 nM; at hCPT2 it was 1.2 nM.

On to `C[N+](C)(C)C[C@@H](CC(=O)[O-])NC(=O)CCCCCCCOCc1cccc2ccccc12` [Example 12, (R)-3-[8-(Naphthalen-1-ylmethoxy)-octanoylamino]-4-trimethylammonio-butyrate], for which the IC50 against hL-CPT1 was more than 10000 nM; on hCPT2, 41 nM.

In the case of `C[N+](C)(C)C[C@@H](CC(=O)[O-])NC(=O)CCCCCCCOCc1cccc(F)c1` [Example 15, (R)-3-[8-(3-Fluoro-benzyloxy)-octanoylamino]-4-trimethylammonio-butyrate], the IC50 on hL-CPT1 is 3250 nM; on hCPT2, 29.4 nM.

Consider `C[N+](C)(C)C[C@@H](CC(=O)[O-])NC(=O)CCCCCCCCCc1ccccc1` [Example 18, (R)-3-(10-Phenyl-decanoylamino)-4-trimethylammonio-butyrate], for which the half-maximal inhibitory concentration (IC50) against hL-CPT1 was found to be 621 nM; against hCPT2, 14.5 nM.

With `C[N+](C)(C)C[C@@H](CC(=O)[O-])NC(=O)CCCCCCCCCc1cccc2ccccc12` [Example 24, (R)-3-(10-Naphthalen-1-yl-decanoylamino)-4-trimethylammonio-butyrate], the IC50 on hL-CPT1 was determined as 3980 nM; against hCPT2, 21.2 nM.

For the molecule `C[N+](C)(C)C[C@@H](CC(=O)[O-])NC(=O)CCCCCCCCCc1ccc(C(F)(F)F)cc1` [Example 25, (R)-4-Trimethylammonio-3-[10-(4-trifluoromethyl-phenyl)-decanoylamino]-butyrate], the IC50 at hL-CPT1 was determined as 3070 nM; on hCPT2, 125 nM.

Turning to `C[N+](C)(C)C[C@@H](CC(=O)[O-])NC(=O)CCCCCCCCCc1cccc(F)c1` [Example 26, (R)-3-[10-(3-Fluoro-phenyl)-decanoylamino]-4-trimethylammonio-butyrate], the concentration for half-maximal inhibition (IC50) on hL-CPT1 was found to be 1820 nM; against hCPT2, 8.1 nM.

In the case of `C[N+](C)(C)C[C@@H](CC(=O)[O-])NC(=O)CCCCCCCCCc1ccsc1` [Example 28, (R)-3-(10-Thiophen-3-yl-decanoylamino)-4-trimethylammonio-butyrate], the IC50 at hL-CPT1 worked out at 854 nM; against hCPT2, 20.2 nM.

With `C[N+](C)(C)C[C@@H](CC(=O)[O-])NC(=O)CCCCCCCc1ccccc1` [Example 31, (R)-3-(8-phenyl-octanoylamino)-4-trimethylammonio-butyrate], the values for the IC50 against hL-CPT1 and on hCPT2 were 1380 nM and 538 nM, respectively.

With `C[N+](C)(C)C[C@@H](CC(=O)[O-])NC(=O)CCCCCCCCc1ccccc1` [Example 32, (R)-3-(9-Phenyl-nonanoylamino)-4-trimethylammonio-butyrate], the IC50 against hL-CPT1 came out at 2370 nM; on hCPT2 it was 246 nM.

Turning to `C[N+](C)(C)C[C@@H](CC(=O)[O-])NC(=O)CCCCCCCCCCc1ccccc1` [Example 33, (R)-3-(11-Phenyl-undecanoylamino)-4-trimethylammonio-butyrate], the figures for the IC50 against hL-CPT1 and on hCPT2 were 6080 nM and 486 nM, respectively.

Regarding `C[N+](C)(C)C[C@@H](CC(=O)[O-])NC(=O)CCCCCCCCCCCc1ccccc1` [Example 34, (R)-3-(12-Phenyl-dodecanoylamino)-4-trimethylammonio-butyrate], the IC50 on hL-CPT1 came out at 427 nM; against hCPT2, 16.6 nM.
